Reference: patent US4927831A, “Spiro-isoquinoline-pyrrolidine tetrones and analogs thereof useful as aldose reductase inhibitors” (American Home Products, priority 1989, dated 1990)
“And” between values parts separate entries of the source, which are not always exact repeats. Equal entries are not always repeated. Where two headings read alike, the source gives them in different places.

What was measured:
[1] = system: dulcitol accumulation in the sciatic nerve; assay: % lowering of dulcitol accumulation in sciatic nerve (N) of galactosemic rats; format: in vivo, Sprague-Dawley; design: key: NS: statistically nonsignificant change; conditions: 4 days
Source text: (§1) The aldose reductase inhibiting property of the compounds of this invention and the utilization of the compounds in preventing, diminishing and alleviating diabetic complications are demonstrable in experiments using galactosemic rats, see Dvornik et al., Science, 182, 1146 (1973). Such experiments are exemplified hereinbelow after the listing of the following general comments pertaining to these experiments:
(§2) (a) Four or more groups of six male rats, 50-70 g, Sprague-Dawley strain, were used. The first group, the control group, was fed a mixture of laboratory chow (rodent Laboratory Chow, Purina) and glucose at 20% (w/w %) concentration. An untreated galactosemic group was fed a similar diet in which galactose was substituted for glucose. The third group was fed a diet prepared by mixing a given amount of the test compound with the galactose containing diet. The concentration of galactose in the diet of the treated groups was the same as that for the untreated galactosemic group.
(§3) (b) After four days, the animals were killed by euthanization. Both the lens and sciatic nerve were removed, weighed and stored frozen for polyol determination.
(§4) (c) The polyol determination was performed by a modification of the procedure of M. Kraml and L. Cosyns, Clin. Biochem., 2,373 (1969). Only two minor reagent changes were made: (a) The rinsing mixture was an aqueous 5% (w/v) trichloroacetic acid solution and (b) the stock solution was prepared by dissolving 25 mg of dulcitol in 100 ml of an aqueous trichloroacetic acid solution. [N.B.: For each experiment the average value found in the tissue from rats fed the glucose diet was subtracted from the individual values found in the corresponding tissue in galactose-fed rats to obtain the amount of polyol accumulated.] The aldose reductase inhibiting effects of the compounds of formula (I) were also tested by employing an in vitro testing procedure similar to that described by S. Hayman and J.H. Kinoshita, J. Biol. Chem., 240,877 (1965). In the present case the procedure of Hayman and Kinoshita was modified in that the final chromatography step was omitted in the preparation of the enzyme from bovine lens.
(§5) The figures under L and N represent the percentage decrease of dulcitol accumulation in the tissues of the lens and sciatic nerve, respectively, for treated rats as compared to untreated rats.

[2] = system: dulcitol accumulation in the lens; assay: % lowering of dulcitol accumulation in lens (L) of galactosemic rats; format: in vivo, Sprague-Dawley; design: key: NS: statistically nonsignificant change; conditions: 4 days
Source text: as §1, §2, §3, §4, §5

[3] = target: T1, aldose reductase (Bos taurus, UniProt P16116); assay: in vitro aldose reductase inhibition (modified Hayman and Kinoshita; enzyme from bovine lens); format: biochemical; conditions: read-out: % Inhibition IN VITRO
T1 construct: preparation of the enzyme from bovine lens; from tissue; host or cells: bovine lens
Experimental: Only two minor reagent changes were made: (a) The rinsing mixture was an aqueous 5% (w/v) trichloroacetic acid solution and (b) the stock solution was prepared by dissolving 25 mg of dulcitol in 100 ml of an aqueous trichloroacetic acid solution. [N.B.: For each experiment the average value found in the tissue from rats fed the glucose diet was subtracted from the individual values found in the corresponding tissue in galactose-fed rats to obtain the amount of polyol accumulated.] […] In the present case the procedure of Hayman and Kinoshita was modified in that the final chromatography step was omitted in the preparation of the enzyme from bovine lens. […] The figures under L and N represent the percentage decrease of dulcitol accumulation in the tissues of the lens and sciatic nerve, respectively, for treated rats as compared to untreated rats.

Row | SMILES | % Lowering Dulcitol Accumulation IN VIVO, N (sciatic nerve) ([1]; 0.5 mg/kg in diet) | % Lowering Dulcitol Accumulation IN VIVO, N (sciatic nerve) ([1]; 1.0 mg/kg in diet) | % Lowering Dulcitol Accumulation IN VIVO, L (lens) ([2]; 0.5 mg/kg in diet) | % Lowering Dulcitol Accumulation IN VIVO, L (lens) ([2]; 1.0 mg/kg in diet) | inhibition at 0.04 µM ([3]; 4 × 10^-8 M) | inhibition at 1 µM [3] | inhibition at 10 µM [3] | inhibition at 10 µM ([3]; 10^-5 M) | inhibition at 1 µM ([3]; 10^-6 M) | inhibition at 0.1 µM ([3]; 10^-7 M) | other results
1 | O=C1CC2(C(=O)N1)C(=O)N(Cc1ccc(Br)cc1F)C(=O)c1ccccc12 (centres unmarked) [2-[(4-Bromo-2-fluorophenyl)methyl]spiro[isoquinoline-4(1H),3'-pyrrolidine]-1,2',3,5'(2H)-tetrone] | 82.0% | 95.0% | 12.0% | 16.0% | 51% | 94% | 96% | – | – | – | % Lowering Dulcitol Accumulation IN VIVO, N (sciatic nerve) ([1]; 0.1 mg/kg in diet): 26.0%; % Lowering Dulcitol Accumulation IN VIVO, N (sciatic nerve) ([1]; 0.3 mg/kg in diet): 60.0%; % Lowering Dulcitol Accumulation IN VIVO, L (lens) ([2]; 0.1 mg/kg in diet): NS; % Lowering Dulcitol Accumulation IN VIVO, L (lens) ([2]; 0.3 mg/kg in diet): NS; inhibition at 0.1 µM [3]: 94%
2 | O=C1CC2(C(=O)N1)C(=O)N(Cc1ccc(Cl)c(Cl)c1)C(=O)c1ccccc12 (centres unmarked) [2-[(3,4-Dichlorophenyl)methyl]spiro[isoquinoline-4(1H),3'-pyrrolidine]-1,2',3,5'(2H)-tetrone] | – | 64.0% | – | 10.0% | 42% | – | – | 100% | 97% | 87% | % Lowering Dulcitol Accumulation IN VIVO, N (sciatic nerve) ([1]; 3.0 mg/kg in diet): 76.0%; % Lowering Dulcitol Accumulation IN VIVO, N (sciatic nerve) ([1]; 10.0 mg/kg in diet): 92.0%; % Lowering Dulcitol Accumulation IN VIVO, N (sciatic nerve) ([1]; 48.0 mg/kg in diet): 85.0%; % Lowering Dulcitol Accumulation IN VIVO, L (lens) ([2]; 3.0 mg/kg in diet): 18.0%; % Lowering Dulcitol Accumulation IN VIVO, L (lens) ([2]; 10.0 mg/kg in diet): 35.0%; % Lowering Dulcitol Accumulation IN VIVO, L (lens) ([2]; 48.0 mg/kg in diet): 41.0%
3 | O=C1C[C@]2(C(=O)N1)C(=O)N(Cc1ccc(Br)cc1F)C(=O)c1ccc(F)cc12 [(S)-(-)-[2-[(4-Bromo-2-fluorophenyl)methyl]-6-fluoro]spiro[isoquinoline-4(1H),3'-pyrrolidine]-1,2',3,5'(2H)-tetrone] | – | – | – | – | – | 97% | 98% | – | – | – | % Lowering Dulcitol Accumulation IN VIVO, N (sciatic nerve) ([1]; 0.4 mg/kg in diet): 40%; % Lowering Dulcitol Accumulation IN VIVO, N (sciatic nerve) ([1]; 0.8 mg/kg in diet): 70%; % Lowering Dulcitol Accumulation IN VIVO, L (lens) ([2]; 0.4 mg/kg in diet): NS; % Lowering Dulcitol Accumulation IN VIVO, L (lens) ([2]; 0.8 mg/kg in diet): 21%; inhibition at 0.04 µM [3]: 29%; inhibition at 0.1 µM [3]: 46%
4 | CN1C(=O)c2ccc(Br)cc2C2(CC(=O)NC2=O)C1=O (centres unmarked) [6-Br H CH3, 6-Bromo-2-methylspiro[isoquinoline-4(1H),3'-pyrrolidine]-1,2',3,5'(2H)-tetrone] | – | 54% | – | NS | 43% | – | – | 100% | 100% | 85% | –
5 | O=C1C[C@]2(C(=O)N1)C(=O)N(Cc1ccc(Br)cc1F)C(=O)c1ccccc12 [(S)-(-)-2-[(4-Bromo-2-fluorophenyl)methyl]spiro[isoquinoline-4(1H),3'-pyrrolidine]-1,2',3,5'(2H)-tetrone] | NS | – | NS | – | – | – | – | 87% | 51% | – | % Lowering Dulcitol Accumulation IN VIVO, N (sciatic nerve) ([1]; 4.8 mg/kg in diet): 83%; % Lowering Dulcitol Accumulation IN VIVO, L (lens) ([2]; 4.8 mg/kg in diet): NS
6 | O=C1CC2(C(=O)N1)C(=O)N(Cc1ccc(Br)cc1F)C(=O)c1c(F)cccc12 (centres unmarked) [[2-[(4-Bromo-2-fluorophenyl)methyl]-8-fluoro]spiro[isoquinoline-4(1H),3'-pyrrolidine]-1,2',3,5'(2H)-tetrone] | 50.6% | 57.6% | NS | 16.3% | 43% | 94% | 96% | – | – | 92% | –
7 | O=C1CC2(C(=O)N1)C(=O)N(Cc1ccc(Br)cc1F)C(=O)c1ccc(F)cc12 (centres unmarked) [[2-[(4-Bromo-2-fluorophenyl)methyl]-6-fluoro]spiro[isoquinoline-4(1H),3'-pyrrolidine]-1,2',3,5'(2H)-tetrone] | 82.9% and 92.1% | – | NS | – | – | 96% | 97% | – | – | – | % Lowering Dulcitol Accumulation IN VIVO, N (sciatic nerve) ([1]; 0.3 mg/kg in diet): 39.7%; % Lowering Dulcitol Accumulation IN VIVO, N (sciatic nerve) ([1]; 0.9 mg/kg in diet): 93.5%; % Lowering Dulcitol Accumulation IN VIVO, L (lens) ([2]; 0.3 mg/kg in diet): NS; % Lowering Dulcitol Accumulation IN VIVO, L (lens) ([2]; 0.9 mg/kg in diet): NS; inhibition at 0.04 µM [3]: 38%
8 | O=C1CC2(C(=O)N1)C(=O)N(Cc1ccc(Br)cc1F)C(=O)c1ccc(Cl)cc12 (centres unmarked) [[2-[(4-Bromo-2-fluorophenyl)methyl]-6-chloro]spiro[isoquinoline-4(1H),3'-pyrrolidine]-1,2',3,5'(2H)-tetrone] | – | – | – | – | 8% | – | – | 97% | 92% | 55% | % Lowering Dulcitol Accumulation IN VIVO, N (sciatic nerve) ([1]; 0.6 mg/kg in diet): 29%; % Lowering Dulcitol Accumulation IN VIVO, L (lens) ([2]; 0.6 mg/kg in diet): 9%
9 | CCCN1C(=O)c2ccccc2C2(CC(=O)NC2=O)C1=O (centres unmarked) [H H (CH2)2 CH3, 2-Propylspiro[isoquinoline-4(1H),3'-pyrrolidine]-1,2',3,5'(2H)-tetrone] | – | – | – | – | 8% | – | 94% | – | 62% | 19% | % Lowering Dulcitol Accumulation IN VIVO, N (sciatic nerve) ([1]; 11 mg/kg in diet): NS; % Lowering Dulcitol Accumulation IN VIVO, L (lens) ([2]; 11 mg/kg in diet): NS
10 | CN1C(=O)c2ccc(Cl)cc2C2(CC(=O)NC2=O)C1=O (centres unmarked) [6-Cl H CH3, 6-Chloro-2-methylspiro[isoquinoline-4(1H)3'-pyrrolidine]-1,2',3,5'(2H)-tetrone] | – | 75% | – | 33% | 43% | 94% | 93% | – | – | 73% | % Lowering Dulcitol Accumulation IN VIVO, N (sciatic nerve) ([1]; 3.0 mg/kg in diet): 75%; % Lowering Dulcitol Accumulation IN VIVO, L (lens) ([2]; 3.0 mg/kg in diet): 59%
11 | CCN1C(=O)c2ccccc2C2(CC(=O)NC2=O)C1=O (centres unmarked) [H H CH2 CH3, 2-Ethylspiro[isoquinoline-4(1H),3'-pyrrolidine]-1,2',3,5'(2H)-tetrone] | – | – | – | – | 17% | – | 96% | – | 76% | 27% | % Lowering Dulcitol Accumulation IN VIVO, N (sciatic nerve) ([1]; 11 mg/kg in diet): NS; % Lowering Dulcitol Accumulation IN VIVO, L (lens) ([2]; 11 mg/kg in diet): NS
12 | COc1ccc2c(c1)C(=O)N(Cc1ccc(Br)cc1F)C(=O)C21CC(=O)NC1=O (centres unmarked) [[2-[(4-Bromo-2-fluorophenyl)methyl]-7-methoxy]spiro[isoquinoline-4(1H),3'-pyrrolidine]-1,2',3,5'(2H)-tetrone] | – | – | – | – | 72% | 96% | – | 97% | – | 90% | % Lowering Dulcitol Accumulation IN VIVO, N (sciatic nerve) ([1]; 25.7 mg/kg in diet): 88.1%; % Lowering Dulcitol Accumulation IN VIVO, L (lens) ([2]; 25.7 mg/kg in diet): 45.3%
13 | CCCCN1C(=O)c2ccccc2C2(CC(=O)NC2=O)C1=O (centres unmarked) [H H (CH2)3 CH3, 2-Butylspiro[isoquinoline-4(1H),3'-pyrrolidine]-1,2',3,5'(2H)-tetrone] | – | – | – | – | 19% | 86% | – | 99% | – | 17% | % Lowering Dulcitol Accumulation IN VIVO, N (sciatic nerve) ([1]; 10.0 mg/kg in diet): NS; % Lowering Dulcitol Accumulation IN VIVO, L (lens) ([2]; 10.0 mg/kg in diet): NS
14 | COc1cc2c(cc1Br)C1(CC(=O)NC1=O)C(=O)N(Cc1ccc(Br)cc1F)C2=O (centres unmarked) [[6-Bromo-2-[(4-bromo-2-fluorophenyl)methyl]-7-methoxy]spiro[isoquinoline-4(1H),3'-pyrrolidine]-1,2',3,5'(2H)-tetrone] | 55.2% | – | NS | – | 70% | – | – | 98% | 97% | 88% | % Lowering Dulcitol Accumulation IN VIVO, N (sciatic nerve) ([1]; 26.4 mg/kg in diet): 89.5%; % Lowering Dulcitol Accumulation IN VIVO, L (lens) ([2]; 26.4 mg/kg in diet): 48.8%
